“Also recorded” adds a separate entry of the source.
Legend:
[1] = tested on: head and neck cell lines SCC1 and SCC25; experiment: [18F]WC-4-138 uptake in cell culture, head and neck lines; assay type: cell-based; settings: SCC1 and SCC25, incubation 5, 30 or 60 minutes, normalized to protein
Procedure: (§1) In these experiments, the head and neck squamous cell carcinoma lines SCC1, SCC15, and SCC25 (ATCC) were propagated in Dulbecco's Modified Eagle's Medium (DMEM, Gibco) supplemented with 10% Fetal Bovine Serum (FBS, Gibco), Penicillin-Streptomycin (P/S, Gibco), and 100 ng/ml hydrocortisone (Sigma-Aldrich). The small cell lung cancer lines NCI-h69 and NCI-h82 (ATCC) were propagated m RPMI Medium (Gibco) supplemented with 10% FBS and 1% P/S. The human breast cancer cell line MDA-MB-231 (ATCC) was propagated in Eagle's Minimum Essential Medium (Gibco) supplemented with 5% FBS, 2% Vitamins for MEM (Gibco), 1% 200 mM L-glutamine (Gibco), 1% 10 mM Non-Essential Amino Acid (NEAA, Gibco).
For each experimental replicate, approximately 1 μCi of [^18F]WC-4-138 was diluted in 1 ml of cell culture medium and added to 10^6 cells. After 5, 30, or 60 minutes, the medium was collected and cells were washed twice in 0.7 ml Phosphate Buffered Saline (PBS, Gibco). Adherent cells were collected by scraping the cell culture dish and transferring to a microfuge tube. Radioactivity was measured in the collected medium, PBS, or cell pellets. Protein from the cell pellet was quantified using a […]. All data were decay-corrected and normalized to total protein quantity in the cell pellet. For drug treatment studies, cells were incubated with 10 μM Olaparib or Iniparib twenty-hours prior to incubation with [^18F]WC-4-138.
The head and neck cell lines SCC1 and SCC25 constitutively take up small amounts of tracer, registering as 0.001-0.002 μCi/μg in the cell pellet (FIG. 5A). […] Radioactivity was measured in head and neck squamous cell cancer (HNSCC) lines (SCC1 and SCC25) or small cell lung cancer (SCLC) lines (NCI-h69 and NCI-h82) after incubation with [^18F]WC-4-138 for 5, 30, or 60 minutes (n=3 at each time point). […] PARP activity was measured in HNSCC or lung SCLC cells. (FIG. 5C-D) [^18F]WC-4-138 uptake was measured in HNSCC cell lines treated with olaparib or iniparib. […]

[2] = Estimated human dosimetry from mouse biodistribution study (MIRD)
Text: Estimates were obtained from the organ residence times calculated from the mouse biodistribution data, shown in Table 1, using standard MIRD methodology.

[3] = tested on: Lung cell lines NCI-h69 and NCI-h82; experiment: [18F]WC-4-138 uptake in cell culture, small cell lung cancer lines; assay type: cell-based; settings: NCI-h69 and NCI-h82, incubation 5, 30 or 60 minutes, normalized to protein
Procedure: as §1
For each experimental replicate, approximately 1 μCi of [^18F]WC-4-138 was diluted in 1 ml of cell culture medium and added to 10^6 cells. […] Radioactivity was measured in the collected medium, PBS, or cell pellets. Protein from the cell pellet was quantified using a […]. All data were decay-corrected and normalized to total protein quantity in the cell pellet. […]
The head and neck cell lines SCC1 and SCC25 constitutively take up small amounts of tracer, registering as 0.001-0.002 μCi/μg in the cell pellet (FIG. 5A). […] PARP activity was measured in HNSCC or lung SCLC cells. […]

[4] = tested on: MDA-MB-436 tumors; experiment: microPET imaging with [18F]12, MDA-MB-436 xenograft tumors; assay type: in vivo, mice; settings: baseline, 0-60 min post-tracer injection
Procedure: This example illustrates the visualization of tumor tissue in microPET in mice. MDA-MB-436 human breast cancer xenograft tumors in immune-deficient mice were visualized by PET using [^18F]12.
MDA-MB-436 and MDA-MB-231 human breast cancer cells were maintained in cell culture under standard conditions with 5% CO2 atmosphere using Eagle's minimum essential medium (with Earle's balanced salt solution and 2 mM L-glutamine) supplemented with 2 mM E-glutamine, 1 mM sodium pyruvate, 0.1 mM non-essential amino acids 2% vitamins for MEM, and 5% fetal bovine serum. Cells in exponential growth were trypsinized and harvested for tumor implantation. After counting, cells were re-suspended in ice-cold 1:1 Matrigel and PBS to give the desired concentration and held on ice.
Mature female athymic nu/nu mice from Charles River Laboratories are allowed to acclimate in an AALAC accredited housing facility for at least 1 week prior to tumor implantation for these serial imaging studies. Female nu/nu mice were implanted in the mammary fat pads (near the auxiliary lymph nodes) with ˜8×10^6 MDA-MB-436 breast cancer cells in ˜100 μL of 1:1 Matrigel:PBS. Imaging studies were conducted 2-3 weeks post implantation.
Tumor-bearing mice were placed in an induction chamber containing ˜2% isoflurane/oxygen and then secured to a custom double bed for placement of tail vein catheters; anesthesia was maintained via nose-cone at ˜1% isoflurane/oxygen for the dynamic imaging procedure. The mice were injected with 150-200 μCi of [^18F]12 and scanned for 0-60 min using Focus 220 and Inveon PET/CT scanners. The standard uptake values (SUVs) were generated from manually drawn regions of interests for tumors and surrounding ‘background’ tissue. Visualization of specific uptake was determined by comparison of baseline scans with images acquired by tracer injection 20 minutes after pre-treatment with the blocking agents olaparib (50 mg/kg, IP) or 12 (1 mg/kg, IP).

Estimated human dosimetry, Adrenals ([2]; Female): 0.052 rad/mCi
Estimated human dosimetry, Brain ([2]; Female): 0.022 rad/mCi
Estimated human dosimetry, Breasts ([2]; Female): 0.019 rad/mCi
Estimated human dosimetry, Effective Dose ([2]; Female): 0.057 rem/mCi
Estimated human dosimetry, Effective Dose Equivalent ([2]; Female): 0.075 rad/mCi
Estimated human dosimetry, Gallbladder Wall ([2]; Female): 0.033 rad/mCi
Estimated human dosimetry, Heart Wall ([2]; Female): 0.047 rad/mCi
Estimated human dosimetry, Kidneys ([2]; Female): 0.093 rad/mCi
Estimated human dosimetry, LLI Wall ([2]; Female): 0.036 rad/mCi
Estimated human dosimetry, Liver ([2]; Female): 0.065 rad/mCi
Estimated human dosimetry, Lungs ([2]; Female): 0.045 rad/mCi
Estimated human dosimetry, Muscle ([2]; Female): 0.035 rad/mCi
Estimated human dosimetry, Osteogenic Cells ([2]; Female): 0.203 rad/mCi
Estimated human dosimetry, Ovaries ([2]; Female): 0.045 rad/mCi
Estimated human dosimetry, Pancreas ([2]; Female): 0.064 rad/mCi
Estimated human dosimetry, Red Marrow ([2]; Female): 0.069 rad/mCi
Estimated human dosimetry, Skin ([2]; Female): 0.019 rad/mCi
Estimated human dosimetry, Small Intestine ([2]; Female): 0.030 rad/mCi
Estimated human dosimetry, Spleen ([2]; Female): 0.133 rad/mCi
Estimated human dosimetry, Stomach Wall ([2]; Female): 0.030 rad/mCi
Estimated human dosimetry, Thymus ([2]; Female): 0.026 rad/mCi
Estimated human dosimetry, Thyroid ([2]; Female): 0.038 rad/mCi
Estimated human dosimetry, Total Body ([2]; Female): 0.039 rad/mCi
Estimated human dosimetry, ULI Wall ([2]; Female): 0.031 rad/mCi
Estimated human dosimetry, Urinary Bladder Wall ([2]; Female): 0.301 rad/mCi
Estimated human dosimetry, Uterus ([2]; Female): 0.053 rad/mCi
Estimated human dosimetry, Adrenals ([2]; Male): 0.043 rad/mCi
Estimated human dosimetry, Brain ([2]; Male): 0.019 rad/mCi
Estimated human dosimetry, Effective Dose ([2]; Male): 0.047 rem/mCi
Estimated human dosimetry, Effective Dose Equivalent ([2]; Male): 0.062 rad/mCi
Estimated human dosimetry, Gallbladder Wall ([2]; Male): 0.028 rad/mCi
Estimated human dosimetry, Heart Wall ([2]; Male): 0.038 rad/mCi
Estimated human dosimetry, Kidneys ([2]; Male): 0.083 rad/mCi
Estimated human dosimetry, LLI Wall ([2]; Male): 0.029 rad/mCi
Estimated human dosimetry, Liver ([2]; Male): 0.050 rad/mCi
Estimated human dosimetry, Lungs ([2]; Male): 0.035 rad/mCi
Estimated human dosimetry, Muscle ([2]; Male): 0.026 rad/mCi
Estimated human dosimetry, Osteogenic Cells ([2]; Male): 0.155 rad/mCi
Estimated human dosimetry, Pancreas ([2]; Male): 0.055 rad/mCi
Estimated human dosimetry, Red Marrow ([2]; Male): 0.061 rad/mCi
Estimated human dosimetry, Skin ([2]; Male): 0.016 rad/mCi
Estimated human dosimetry, Small Intestine ([2]; Male): 0.026 rad/mCi
Estimated human dosimetry, Spleen ([2]; Male): 0.110 rad/mCi
Estimated human dosimetry, Stomach Wall ([2]; Male): 0.024 rad/mCi
Estimated human dosimetry, Testes ([2]; Male): 0.022 rad/mCi
Estimated human dosimetry, Thymus ([2]; Male): 0.020 rad/mCi
Estimated human dosimetry, Thyroid ([2]; Male): 0.033 rad/mCi
Estimated human dosimetry, Total Body ([2]; Male): 0.031 rad/mCi
Estimated human dosimetry, ULI Wall ([2]; Male): 0.025 rad/mCi
Estimated human dosimetry, Urinary Bladder Wall ([2]; Male): 0.220 rad/mCi
SMILES: O=C1NCCn2c(-c3ccc(OCC[18F])cc3)nc3cccc1c32 [[^18F]12]
tracer uptake in the cell pellet [1]: 0.001-0.002 μCi/μg
tracer uptake in the cell pellet [3]: 0.004-0.006 μCi/μg
[18F]12 uptake in MDA-MB-436 tumors (microPET) [4]: increased uptake that was distinguishable from background; also recorded: progressively accumulated in the tumor; also recorded: accumulation of the radioactivity in these tumors
